Results on 3 molecules are retold here after US10099993B2, “Metabotropic glutamate receptor positive allosteric modulators (PAMS) and uses thereof” (Sanford-Burnham Medical Research Institute, priority 2014, dated 2018).

Series [1] can be described thus: In vivo PK in rats, i.p. administration. The settings on record: rats, i.p., 10 mg/kg, Tmax 30 min.
In another series the target is mGlu4 (Rattus norvegicus (Rat), UniProt P31423). Kind of series: mGlu4 GIRK thallium flux assay. The class given is cell-based. Conditions: full agonist concentration-response ± 10 μM compound.
The next series deals with mGlu5 (Rattus norvegicus (Rat), UniProt P31424). Kind of series: mGlu5 calcium assay. The settings on record: full agonist concentration-response ± 10 μM compound. The class given is cell-based.
For series [2], the target named is Peripheral benzodiazepine receptor ([3H]PK11195) (Rattus norvegicus (Rat), UniProt P16257). As to the kind of experiment: PDSP radioligand binding.
Another series concerns the target mGlu2 (Rattus norvegicus (Rat), UniProt P31421). Kind of series: mGlu2 GIRK thallium flux assay.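 Further: Cell-based assay, rate of fluorescence rise right after thallium plus agonist addition read on a kinetic imaging plate reader, normalized to vehicle and maximal agonist control.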
The target in a further series is mGlu6 (Rattus norvegicus (Rat), UniProt P35349). Kind of series: mGlu6 GIRK thallium flux assay. The class given is cell-based. The settings on record: full agonist concentration-response ± 10 μM compound.
The target in the next series is mGlu1 (Rattus norvegicus (Rat), UniProt P23385). As to the kind of experiment: mGlu1 calcium assay. Format: cell-based. The settings on record: full agonist concentration-response ± 10 μM compound.
The target of series [3] is Transporter, Serotonin (5-Hydroxytryptamine) (SERT) (Homo sapiens (Human), UniProt P31645). As to the kind of experiment: PDSP radioligand binding. Conditions: displacement of radioligand.
In a further series the target is Dopamine D2 (Homo sapiens (Human), UniProt P14416). As to the kind of experiment: PDSP radioligand binding. Conditions: Dopamine D2, 10 μM, displacement of radioligand.
The target in series [4] is Serotonin (5-Hydroxytryptamine) 5-HT2A (Homo sapiens (Human), UniProt P28223). As to the kind of experiment: PDSP radioligand binding. The settings on record: displacement of radioligand.
The test system of another series is forty-five CNS receptors. Kind of series: CNS receptors panel (NIMH PDSP), radioligand binding. Conditions: 10 μM.
Another series addresses Adrenergic α2C (Homo sapiens (Human), UniProt P18825). Kind of series: PDSP radioligand binding. Conditions: displacement of radioligand.
In a further series the target is mGlu3 (Rattus norvegicus (Rat), UniProt P31422). Kind of series: mGlu3 GIRK thallium flux assay.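 On all read-outs here: kinetic fluorescence slope read shortly after thallium plus agonist addition, scaled between vehicle and maximal agonist control.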 Conditions: for General activity at mGlu3: full agonist concentration-response ± 10 μM compound.
The target in another series is Histamine H1 (Homo sapiens (Human), UniProt P35367). Kind of series: PDSP radioligand binding. Conditions: Histamine H1, 10 μM, displacement of radioligand.
The target in the next series is Dopamine D5 (Homo sapiens (Human), UniProt P21918). As to the kind of experiment: PDSP radioligand binding. Conditions: Dopamine D5, 10 μM, displacement of radioligand.
In a further series the target is Muscarinic M4 (Homo sapiens (Human), UniProt P08173). Kind of series: PDSP radioligand binding. The settings on record: Muscarinic M4, 10 μM, displacement of radioligand.
The target in another series is Muscarinic M2 (Homo sapiens (Human), UniProt P08172). Kind of series: PDSP radioligand binding. The settings on record: Muscarinic M2, 10 μM, displacement of radioligand.
For the next series, the target named is mGlu7 (Rattus norvegicus (Rat), UniProt P35400). Kind of series: mGlu7 GIRK thallium flux assay. Format: cell-based. The settings on record: full L-AP4 concentration-response ± 10 μM compound.
For a further series, the target named is mGlu8 (Rattus norvegicus (Rat), UniProt P70579). Kind of series: mGlu8 GIRK thallium flux assay. Format: cell-based. The settings on record: full agonist concentration-response ± 10 μM compound.
For series [5] the following is noted: rat, microsomes, 1 h.
The format of series [6] is in vitro ADME. The settings on record: rat, 1 h.
The conditions of series [7]: 100 μM, pH 7.2.
The conditions of series [8]: rat, in vivo, ip, 10 mg/kg.

Sequence of mGlu3 (P31422 23-879): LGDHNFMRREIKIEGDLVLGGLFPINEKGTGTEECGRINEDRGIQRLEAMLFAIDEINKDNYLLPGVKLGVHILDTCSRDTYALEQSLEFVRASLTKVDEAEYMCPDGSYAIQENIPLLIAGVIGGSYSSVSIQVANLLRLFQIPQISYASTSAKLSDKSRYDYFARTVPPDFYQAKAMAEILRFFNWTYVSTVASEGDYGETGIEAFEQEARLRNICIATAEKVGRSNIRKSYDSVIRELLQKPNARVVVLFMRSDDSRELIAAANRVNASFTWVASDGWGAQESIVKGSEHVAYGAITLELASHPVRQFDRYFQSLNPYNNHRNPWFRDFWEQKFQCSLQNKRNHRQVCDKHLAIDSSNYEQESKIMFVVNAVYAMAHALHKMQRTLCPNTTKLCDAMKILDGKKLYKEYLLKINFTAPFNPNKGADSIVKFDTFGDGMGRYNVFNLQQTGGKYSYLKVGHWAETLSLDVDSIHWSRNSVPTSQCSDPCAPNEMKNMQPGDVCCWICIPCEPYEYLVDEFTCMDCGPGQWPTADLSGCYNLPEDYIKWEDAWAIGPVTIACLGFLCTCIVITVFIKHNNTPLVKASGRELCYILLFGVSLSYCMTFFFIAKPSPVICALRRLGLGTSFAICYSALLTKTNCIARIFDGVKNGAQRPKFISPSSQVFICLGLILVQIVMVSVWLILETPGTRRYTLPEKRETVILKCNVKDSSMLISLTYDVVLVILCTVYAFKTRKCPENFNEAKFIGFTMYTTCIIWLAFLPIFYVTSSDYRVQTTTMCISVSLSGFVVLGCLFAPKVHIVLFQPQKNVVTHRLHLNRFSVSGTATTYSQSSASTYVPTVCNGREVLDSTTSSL
Sequence of mGlu6 (P35349 24-871): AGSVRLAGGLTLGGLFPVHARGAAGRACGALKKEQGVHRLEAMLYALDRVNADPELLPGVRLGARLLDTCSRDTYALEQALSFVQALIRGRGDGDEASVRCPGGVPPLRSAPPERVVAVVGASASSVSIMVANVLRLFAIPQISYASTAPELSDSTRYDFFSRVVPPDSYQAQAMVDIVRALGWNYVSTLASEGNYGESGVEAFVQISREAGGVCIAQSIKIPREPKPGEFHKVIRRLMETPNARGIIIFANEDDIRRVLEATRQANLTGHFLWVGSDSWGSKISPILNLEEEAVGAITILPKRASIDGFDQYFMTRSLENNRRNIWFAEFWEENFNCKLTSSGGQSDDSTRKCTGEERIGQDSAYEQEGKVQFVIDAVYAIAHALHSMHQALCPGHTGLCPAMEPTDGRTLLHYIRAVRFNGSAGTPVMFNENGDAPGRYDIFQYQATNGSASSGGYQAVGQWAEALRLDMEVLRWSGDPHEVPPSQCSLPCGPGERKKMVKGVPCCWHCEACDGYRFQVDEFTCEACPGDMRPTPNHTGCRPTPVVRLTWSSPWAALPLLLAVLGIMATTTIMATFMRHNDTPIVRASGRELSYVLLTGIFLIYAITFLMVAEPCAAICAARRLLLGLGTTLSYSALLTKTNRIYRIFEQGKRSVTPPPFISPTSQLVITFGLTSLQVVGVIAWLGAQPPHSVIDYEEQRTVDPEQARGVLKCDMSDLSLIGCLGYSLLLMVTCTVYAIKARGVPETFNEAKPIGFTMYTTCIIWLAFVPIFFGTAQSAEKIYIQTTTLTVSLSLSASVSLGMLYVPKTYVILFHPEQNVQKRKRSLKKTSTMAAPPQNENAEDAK
Sequence of mGlu8 (P70579 34-908): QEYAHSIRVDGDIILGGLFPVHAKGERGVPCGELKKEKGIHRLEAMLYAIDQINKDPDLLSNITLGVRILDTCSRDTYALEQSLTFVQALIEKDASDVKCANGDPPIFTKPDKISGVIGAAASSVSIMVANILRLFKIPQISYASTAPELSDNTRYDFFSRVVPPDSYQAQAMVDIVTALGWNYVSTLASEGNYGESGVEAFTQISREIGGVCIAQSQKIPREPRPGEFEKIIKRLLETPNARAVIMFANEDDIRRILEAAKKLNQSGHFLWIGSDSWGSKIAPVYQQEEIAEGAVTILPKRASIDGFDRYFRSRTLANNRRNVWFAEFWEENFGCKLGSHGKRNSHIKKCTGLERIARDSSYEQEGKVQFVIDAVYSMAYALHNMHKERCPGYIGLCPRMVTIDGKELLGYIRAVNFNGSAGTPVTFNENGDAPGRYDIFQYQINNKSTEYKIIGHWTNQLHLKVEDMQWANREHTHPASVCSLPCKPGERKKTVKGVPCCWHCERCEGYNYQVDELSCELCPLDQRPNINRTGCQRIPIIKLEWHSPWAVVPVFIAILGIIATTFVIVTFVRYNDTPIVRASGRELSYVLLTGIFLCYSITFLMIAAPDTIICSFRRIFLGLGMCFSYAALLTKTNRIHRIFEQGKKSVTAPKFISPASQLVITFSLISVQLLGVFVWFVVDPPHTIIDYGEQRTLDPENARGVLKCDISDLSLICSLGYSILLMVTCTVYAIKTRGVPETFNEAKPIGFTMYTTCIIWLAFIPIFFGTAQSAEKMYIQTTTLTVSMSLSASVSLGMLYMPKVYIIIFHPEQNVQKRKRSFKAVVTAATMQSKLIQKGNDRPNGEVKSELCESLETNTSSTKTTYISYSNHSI
Sequence of mGlu4 (P31423 33-912): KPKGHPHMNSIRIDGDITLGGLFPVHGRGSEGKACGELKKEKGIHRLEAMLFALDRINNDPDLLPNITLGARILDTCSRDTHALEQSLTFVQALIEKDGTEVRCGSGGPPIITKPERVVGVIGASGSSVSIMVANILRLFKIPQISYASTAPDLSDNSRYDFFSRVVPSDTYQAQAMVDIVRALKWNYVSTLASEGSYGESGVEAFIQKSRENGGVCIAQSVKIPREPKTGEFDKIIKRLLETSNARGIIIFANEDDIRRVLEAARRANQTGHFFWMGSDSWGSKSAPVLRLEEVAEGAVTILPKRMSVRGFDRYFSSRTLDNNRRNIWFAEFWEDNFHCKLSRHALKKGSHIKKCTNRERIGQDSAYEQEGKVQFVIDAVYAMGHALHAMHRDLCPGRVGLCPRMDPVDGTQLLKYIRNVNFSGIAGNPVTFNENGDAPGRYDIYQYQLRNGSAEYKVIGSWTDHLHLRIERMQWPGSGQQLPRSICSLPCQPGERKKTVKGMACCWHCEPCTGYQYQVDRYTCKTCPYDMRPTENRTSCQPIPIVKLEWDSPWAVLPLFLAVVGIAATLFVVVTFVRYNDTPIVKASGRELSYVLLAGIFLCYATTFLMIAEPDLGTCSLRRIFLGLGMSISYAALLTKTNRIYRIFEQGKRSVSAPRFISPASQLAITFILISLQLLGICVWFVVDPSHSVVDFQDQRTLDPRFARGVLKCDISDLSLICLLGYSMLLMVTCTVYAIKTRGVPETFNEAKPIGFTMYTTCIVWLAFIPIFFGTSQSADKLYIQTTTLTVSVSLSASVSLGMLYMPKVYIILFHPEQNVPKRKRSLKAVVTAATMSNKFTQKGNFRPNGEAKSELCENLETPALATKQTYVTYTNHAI
Sequence of mGlu7 (P35400 35-915): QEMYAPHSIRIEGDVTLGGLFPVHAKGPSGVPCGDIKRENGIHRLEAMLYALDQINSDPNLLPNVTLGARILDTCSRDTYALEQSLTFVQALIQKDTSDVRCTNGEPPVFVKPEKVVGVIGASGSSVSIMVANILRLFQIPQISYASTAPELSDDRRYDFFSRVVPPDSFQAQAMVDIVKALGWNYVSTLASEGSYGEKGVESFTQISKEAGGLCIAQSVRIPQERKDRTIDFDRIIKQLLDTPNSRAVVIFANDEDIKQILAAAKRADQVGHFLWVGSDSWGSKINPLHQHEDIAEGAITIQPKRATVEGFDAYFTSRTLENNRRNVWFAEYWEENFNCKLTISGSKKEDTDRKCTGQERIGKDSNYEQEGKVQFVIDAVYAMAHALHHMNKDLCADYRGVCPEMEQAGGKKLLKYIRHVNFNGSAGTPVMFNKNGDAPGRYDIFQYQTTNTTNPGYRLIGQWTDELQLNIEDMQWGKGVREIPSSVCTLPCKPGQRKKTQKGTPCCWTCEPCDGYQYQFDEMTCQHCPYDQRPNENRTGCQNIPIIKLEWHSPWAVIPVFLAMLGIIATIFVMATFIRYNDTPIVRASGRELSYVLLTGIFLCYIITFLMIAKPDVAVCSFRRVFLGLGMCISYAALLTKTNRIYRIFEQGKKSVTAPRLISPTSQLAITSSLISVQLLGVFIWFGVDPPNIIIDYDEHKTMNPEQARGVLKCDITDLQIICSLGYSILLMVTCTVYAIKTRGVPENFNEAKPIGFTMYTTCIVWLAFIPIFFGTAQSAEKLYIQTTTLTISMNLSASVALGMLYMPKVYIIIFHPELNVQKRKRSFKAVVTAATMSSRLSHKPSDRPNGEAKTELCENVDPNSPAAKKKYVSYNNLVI
Sequence of Transporter, Serotonin (5-Hydroxytryptamine) (SERT) (P31645 whole entry): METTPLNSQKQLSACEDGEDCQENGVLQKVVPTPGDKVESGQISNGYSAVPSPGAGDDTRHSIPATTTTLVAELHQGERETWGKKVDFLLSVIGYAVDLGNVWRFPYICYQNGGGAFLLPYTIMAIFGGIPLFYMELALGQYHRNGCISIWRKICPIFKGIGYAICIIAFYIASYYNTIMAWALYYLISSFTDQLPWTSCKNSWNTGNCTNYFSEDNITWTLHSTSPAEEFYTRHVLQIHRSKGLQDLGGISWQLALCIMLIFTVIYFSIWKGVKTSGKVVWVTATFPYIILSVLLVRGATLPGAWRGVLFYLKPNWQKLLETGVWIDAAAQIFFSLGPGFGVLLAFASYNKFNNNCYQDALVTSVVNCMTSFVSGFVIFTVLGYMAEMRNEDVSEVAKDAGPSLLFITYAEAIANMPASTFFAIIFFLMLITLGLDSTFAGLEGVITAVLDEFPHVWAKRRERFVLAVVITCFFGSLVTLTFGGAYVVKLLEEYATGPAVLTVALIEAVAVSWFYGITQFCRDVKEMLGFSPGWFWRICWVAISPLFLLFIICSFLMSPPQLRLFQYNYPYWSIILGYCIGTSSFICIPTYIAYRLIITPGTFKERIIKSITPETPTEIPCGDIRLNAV

What is called inhibition is the drop in the measured response relative to a control, in per cent. For the molecule `COc1ccc(C(=O)O)cc1OCCCCOc1ccc(C(=O)CC(C)(C)C)c(O)c1C` [compound 72, 3-(4-(4-(3,3-Dimethylbutanoyl)-3-hydroxy-2-methylphenoxy)butoxy)-4-methoxybenzoic acid], the “Plasma, maximum concentration” value in series [1] stood at 2.44 ± 2.19 µM. At mGlu4, the “General activity at mGlu4” value is “inactive^b”. At mGlu5, the “General activity at mGlu5” value is “inactive^b”. The inhibition at 10 µM in series [2] is 1%; in series [3], 0.3%; on Dopamine D2 it was 1%; in [4], -0.6%; at Adrenergic α2C, 0.6%; at Histamine H1, 0.2%. Besides, the inhibition at 10 µM on Dopamine D5 was -0.9%; on Muscarinic M4, -0.9%; at Muscarinic M2, -1%. Moreover, at mGlu2 (full agonist concentration-response ± 10 μM compound), the “General activity at mGlu2” value is “Ago-PAM”. Further, the “Emin, minimal response of the concentration-response of agonist” value was “Emin = 72%” at mGlu2 (mGlu2, 10 μM compound) and “Emin = 54%” at mGlu3 (mGlu3, 10 μM compound). The “General activity at mGlu6” value on mGlu6 is “inactive^b”. For the same molecule, at mGlu1, the “General activity at mGlu1” value was “inactive^b”. The “binding activity at forty-five CNS receptors” value in the series with forty-five CNS receptors is recorded as “no binding activity was detected”. The “General activity at mGlu3” value at mGlu3 was “Ago-PAM”. For the same molecule, at mGlu7, the “General activity at mGlu7” value was “inactive^b”. Moreover, on mGlu8, the “General activity at mGlu8” value was “inactive^b”.

With `COc1cc(C(=O)O)ccc1OCCCCOc1ccc(C(=O)CC2CCCC2)c(O)c1C` [Compound 45, 4-{4-[4-(2-Cyclopentylacetyl)-3-hydroxy-2-methylphenoxy]butoxy}-methoxybenzoic acid], the “Microsomal stability, percent remaining” value in series [5] is 31%. In series [6], the “Plasma Stability, percent remaining” value turned out to be 100%. For the same molecule, the “PAMPA (LogPapp)” value in [7] is reported as −6.54.

`COc1cc(C(=O)O)ccc1OCCCCOc1ccc(C(=O)CC(C)(C)C)c(O)c1C` [compound 73]: at mGlu4, the “General activity at mGlu4” value was “inactive^b”. The “General activity at mGlu5” value at mGlu5 is “inactive^b”. Besides, the “Brain: Plasma” value in series [8] turned out to be 0.02 ± 0.01. Also, the “General activity at mGlu6” value on mGlu6 was “PAM”. In addition, the “General activity at mGlu1” value on mGlu1 was “inactive^b”. Besides, at mGlu3, the “General activity at mGlu3” value is “Ago-PAM”. Further, the “General activity at mGlu7” value at mGlu7 is “inactive^b”. In addition, the “General activity at mGlu8” value on mGlu8 is “inactive^b”. Besides, the “PAMPA (LogPapp)” value in series [7] is reported as −5.46.
